For assay [1], the system named is pSer473 of PKB/Akt in SKOV3 cells. Briefly: In-Cell Western cellular PI3K signaling, pSer473 of PKB/Akt in SKOV3 cells. It counts as cell-based. The note with it: Homo sapiens. Here is the method:
Protein phosphorylation was detected as follows: pSer473 of PKB/Akt with rabbit polyclonal antibody from Cell Signaling Technology (CST) (#4058) by In-Cell Western assays, where 1.2×10^4 SKOV3 cells/well in 96-well plates were plated (Cell Carrier, PerkinElmer) for 24 hours (37° C., 5% CO2), as described in Ref.^21.

Another assay deals with p110α (PI3Kα) (Homo sapiens, UniProt P42336). Briefly: LanthaScreen determination of kinetic constants (kinact, Ki) for p110α.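 On all read-outs here: covalent inhibition constants for p110α come from LanthaScreen data, fitted globally by numerical integration in KinTek Global Kinetic Explorer software.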 The class given is binding. The conditions noted are these: for Ki: dissociation constant of the first reversible binding, mean of 3; for kinact: read-out: kinact PI3Kα. For orientation: In TR-FRET formats the signal depends on donor and acceptor labels being close together.
p110α (PI3Kα), sequence (P42336 whole entry): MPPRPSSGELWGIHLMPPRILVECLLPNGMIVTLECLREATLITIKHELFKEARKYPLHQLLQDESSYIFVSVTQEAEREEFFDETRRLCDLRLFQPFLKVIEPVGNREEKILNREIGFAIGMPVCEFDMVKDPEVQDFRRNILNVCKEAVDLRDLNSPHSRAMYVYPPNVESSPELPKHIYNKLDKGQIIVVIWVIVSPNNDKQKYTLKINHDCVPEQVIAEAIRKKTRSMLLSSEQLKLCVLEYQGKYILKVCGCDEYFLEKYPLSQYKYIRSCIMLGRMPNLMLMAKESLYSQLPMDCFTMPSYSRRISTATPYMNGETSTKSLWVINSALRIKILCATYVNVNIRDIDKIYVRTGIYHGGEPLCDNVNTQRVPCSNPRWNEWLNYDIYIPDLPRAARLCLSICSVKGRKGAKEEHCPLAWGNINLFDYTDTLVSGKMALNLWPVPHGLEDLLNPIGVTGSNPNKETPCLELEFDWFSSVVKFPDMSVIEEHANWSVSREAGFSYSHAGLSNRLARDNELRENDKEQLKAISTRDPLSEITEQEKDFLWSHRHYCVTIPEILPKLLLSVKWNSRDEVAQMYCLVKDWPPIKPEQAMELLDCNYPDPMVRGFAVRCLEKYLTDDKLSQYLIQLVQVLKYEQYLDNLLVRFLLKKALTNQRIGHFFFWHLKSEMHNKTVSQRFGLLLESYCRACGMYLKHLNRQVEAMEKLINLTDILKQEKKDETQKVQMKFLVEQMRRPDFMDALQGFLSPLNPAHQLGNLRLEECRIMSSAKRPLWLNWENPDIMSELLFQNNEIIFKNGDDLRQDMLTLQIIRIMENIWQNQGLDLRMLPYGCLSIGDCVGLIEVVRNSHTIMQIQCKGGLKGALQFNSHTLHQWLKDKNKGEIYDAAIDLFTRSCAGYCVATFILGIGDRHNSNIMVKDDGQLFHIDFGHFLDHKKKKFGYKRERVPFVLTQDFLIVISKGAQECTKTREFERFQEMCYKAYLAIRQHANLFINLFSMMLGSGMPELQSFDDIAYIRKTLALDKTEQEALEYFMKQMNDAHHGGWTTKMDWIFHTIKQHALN
p110α (PI3Kα), sequence (P27986 whole entry partner): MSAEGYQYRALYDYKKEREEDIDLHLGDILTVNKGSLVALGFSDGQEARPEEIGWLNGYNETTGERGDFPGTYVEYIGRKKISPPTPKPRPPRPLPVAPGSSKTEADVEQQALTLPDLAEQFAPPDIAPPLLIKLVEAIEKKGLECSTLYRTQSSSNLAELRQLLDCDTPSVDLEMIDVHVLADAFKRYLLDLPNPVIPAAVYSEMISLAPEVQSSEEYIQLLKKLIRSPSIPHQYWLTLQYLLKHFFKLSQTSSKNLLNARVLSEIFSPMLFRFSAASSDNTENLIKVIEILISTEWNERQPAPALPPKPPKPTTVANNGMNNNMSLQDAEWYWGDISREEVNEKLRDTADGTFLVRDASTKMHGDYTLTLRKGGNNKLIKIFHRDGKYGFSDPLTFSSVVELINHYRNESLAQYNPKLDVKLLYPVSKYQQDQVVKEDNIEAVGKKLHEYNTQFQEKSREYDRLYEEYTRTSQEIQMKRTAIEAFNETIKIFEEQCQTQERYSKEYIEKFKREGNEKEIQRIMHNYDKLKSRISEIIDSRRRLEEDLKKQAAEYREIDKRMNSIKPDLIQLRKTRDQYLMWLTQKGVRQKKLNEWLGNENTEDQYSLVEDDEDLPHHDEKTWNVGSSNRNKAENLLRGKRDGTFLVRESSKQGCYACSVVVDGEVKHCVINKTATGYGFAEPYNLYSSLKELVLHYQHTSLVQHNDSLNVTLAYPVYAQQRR

Setting [2] is: SK-OV-3, read-out: IC50 pPKB (S473) SKOV3.
[3] abbreviates: SK-OV-3, SKOV3 cells, mean of 2 or 3 independent measurements, read-out: IC50 pPKB (S473) SKOV3.
[4] abbreviates: mean of 3 independent measurements, global fitting with KinTek.

These results are taken from patent US20240208957A1, “TRIAZINE DERIVATIVE AS REVERSIBLE AND IRREVERSIBLE COVALENT INHIBITORS OF PI3K” (UNIVERSITÄT BASEL, priority 2021, published 2024).

By IC50 is commonly meant the midpoint of a concentration-inhibition curve. The Ki is the dissociation constant of the complex between target and ligand, obtained from inhibition or displacement. A lower Ki goes with higher affinity. By kinact is commonly meant the rate constant of inactivation at saturating inhibitor.

Read-outs that look alike come from different tables or passages of the source.

Description for p110α (PI3Kα): Apparent dissociation constants of compounds [Ki(app)] for p110α were determined by LanthaScreen Technology (Life Technologies), as described in Ref.^21.
Maximum potential rate of covalent bond formation (Kinact) and dissociation constant of the first reversible binding (Ki) of compounds for p110α were determined by LanthaScreen Technology (Life Technologies). The calculation of kinetic parameters was carried out through global fitting for numerical integration by using KinTek Global Kinetic Explorer modelling software^22-27.

`C=CC(=O)N1CCC[C@@H](COCC(=O)N2CCN(c3nc(-c4cnc(N)nc4C(F)F)nc(N4CCOC[C@@H]4C)n3)CC2)C1` [Compound 1, 1-((R)-3-((2-(4-(4-(2-amino-4-(difluoromethyl)pyrimidin-5-yl)-6-((S)-3-methylmorpholino)-1,3,5-triazin-2-yl)piperazin-1-yl)-2-oxoethoxy)methyl)piperidin-1-yl)prop-2-en-1-one]: in assay [1] (setting [2]), the IC50 amounted to 25.4 nM. Moreover, at p110α (PI3Kα), the kinact/KI is 156000 M⁻¹ s⁻¹, the Ki came out at 2.7 nM and the kinact is 0.000419 s⁻¹.
For `C=CC(=O)N1CCC[C@H](COCC(=O)N2CCN(c3nc(-c4cnc(N)nc4C(F)F)nc(N4CCOC[C@@H]4C)n3)CC2)C1` [Compound 2, 1-((S)-3-((2-(4-(4-(2-amino-4-(difluoromethyl)pyrimidin-5-yl)-6-((S)-3-methylmorpholino)-1,3,5-triazin-2-yl)piperazin-1-yl)-2-oxoethoxy)methyl)piperidin-1-yl)prop-2-en-1-one], in assay [1] (setting [3]), the 50% inhibitory concentration (IC50) was determined as 28.8 nM. At p110α (PI3Kα) (PI3Kα, read-out: kinact/Ki), the kinact/KI came out at 94300 M⁻¹ s⁻¹. For the same molecule, the Ki at p110α (PI3Kα) came to 2.78 nM. Besides, at p110α (PI3Kα) (setting [4]), the kinact amounted to 0.000262 s⁻¹.
In the case of `C=CC(=O)N1CC[C@H](COCC(=O)N2CCN(c3nc(-c4cnc(N)nc4C(F)F)nc(N4CCOC[C@@H]4C)n3)CC2)C1` [Compound 3, 1-((S)-3-((2-(4-(4-(2-amino-4-(difluoromethyl)pyrimidin-5-yl)-6-((S)-3-methylmorpholino)-1,3,5-triazin-2-yl)piperazin-1-yl)-2-oxoethoxy)methyl)pyrrolidin-1-yl)prop-2-en-1-one], in assay [1] (setting [3]), the IC50 is 23 nM. Moreover, at p110α (PI3Kα) (PI3Kα, read-out: kinact/Ki), the kinact/KI is 502000 M⁻¹ s⁻¹. The kinact on p110α (PI3Kα) (setting [4]) was 0.000432 s⁻¹.
Take `C=CC(=O)N1CC[C@@H](COCC(=O)N2CCN(c3nc(-c4cnc(N)nc4C(F)F)nc(N4CCOC[C@@H]4C)n3)CC2)C1` [Compound 4, 1-((R)-3-((2-(4-(4-(2-amino-4-(difluoromethyl)pyrimidin-5-yl)-6-((S)-3-methylmorpholino)-1,3,5-triazin-2-yl)piperazin-1-yl)-2-oxoethoxy)methyl)pyrrolidin-1-yl)prop-2-en-1-one]: the IC50 in assay [1] (setting [3]) came to 35.7 nM. In addition, the kinact/KI on p110α (PI3Kα) (PI3Kα, read-out: kinact/Ki) was found to be 325000 M⁻¹ s⁻¹. The Ki at p110α (PI3Kα) is 11.7 nM. Moreover, the kinact on p110α (PI3Kα) (setting [4]) amounted to 0.00383 s⁻¹.
On to `C=CC(=O)N1CCC[C@@H](OCCC(=O)N2CCN(c3nc(-c4cnc(N)nc4C(F)F)nc(N4CCOC[C@@H]4C)n3)CC2)C1` [Compound 5, 1-((R)-3-(3-(4-(4-(2-amino-4-(difluoromethyl)pyrimidin-5-yl)-6-((S)-3-methylmorpholino)-1,3,5-triazin-2-yl)piperazin-1-yl)-3-oxopropoxy)piperidin-1-yl)prop-2-en-1-one], for which the IC50 in assay [1] (setting [2]) came out at 17.1 nM. Besides, on p110α (PI3Kα), the kinact/KI worked out at 595000 M⁻¹ s⁻¹, the affinity corresponds to a Ki of 8.88 nM and the kinact stood at 0.0052 s⁻¹.
With `N#C/C(=C/C1CC1)C(=O)N1CCC[C@@H](COCC(=O)N2CCN(c3nc(-c4cnc(N)nc4C(F)F)nc(N4CCOCC4)n3)CC2)C1` [Compound 8, (R,Z)-2-(3-((2-(4-(4-(2-amino-4-(difluoromethyl)pyrimidin-5-yl)-6-morpholino-1,3,5-triazin-2-yl)piperazin-1-yl)-2-oxoethoxy)methyl)piperidine-1-carbonyl)-3-cyclopropylacrylonitrile], the IC50 in assay [1] (setting [2]) was 11.6 nM. Besides, on p110α (PI3Kα), the kinact/KI stood at 3.96e+06 M⁻¹ s⁻¹, affinity was put at a Ki of 2.78 nM and the kinact came out at 0.011 s⁻¹.
With `N#C/C(=C/C1CC1)C(=O)N1CC[C@H](COCC(=O)N2CCN(c3nc(-c4cnc(N)nc4C(F)F)nc(N4CCOCC4)n3)CC2)C1` [Compound 9, (S,Z)-2-(3-((2-(4-(4-(2-amino-4-(difluoromethyl)pyrimidin-5-yl)-6-morpholino-1,3,5-triazin-2-yl)piperazin-1-yl)-2-oxoethoxy)methyl)pyrrolidine-1-carbonyl)-3-cyclopropylacrylonitrile], the IC50 in assay [1] (setting [3]) was found to be 14.4 nM. Further, at p110α (PI3Kα) (PI3Kα, read-out: kinact/Ki), the kinact/KI was determined as 9.43e+06 M⁻¹ s⁻¹. This molecule also had a Ki on p110α (PI3Kα) of 1.11 nM. The kinact on p110α (PI3Kα) (setting [4]) is 0.0105 s⁻¹.
For `N#C/C(=C/C1CC1)C(=O)N1CC[C@@H](COCC(=O)N2CCN(c3nc(-c4cnc(N)nc4C(F)F)nc(N4CCOCC4)n3)CC2)C1` [Compound 10, (R,Z)-2-(3-((2-(4-(4-(2-amino-4-(difluoromethyl)pyrimidin-5-yl)-6-morpholino-1,3,5-triazin-2-yl)piperazin-1-yl)-2-oxoethoxy)methyl)pyrrolidine-1-carbonyl)-3-cyclopropylacrylonitrile] the same measures were 23.1 nM, 1.02e+07 M⁻¹ s⁻¹, 1.09 nM and 0.0111 s⁻¹.
Regarding `C=C(F)C(=O)N1CCC[C@@H](COCC(=O)N2CCN(c3nc(-c4cnc(N)nc4C(F)F)nc(N4CCOCC4)n3)CC2)C1` [Compound 11, (R)-1-(3-((2-(4-(4-(2-amino-4-(difluoromethyl)pyrimidin-5-yl)-6-morpholino-1,3,5-triazin-2-yl)piperazin-1-yl)-2-oxoethoxy)methyl)piperidin-1-yl)-2-fluoroprop-2-en-1-one], the IC50 in assay [1] (setting [3]) was determined as 19.9 nM. At p110α (PI3Kα), this molecule yielded a Ki of 1.85 nM.
Regarding `C=C(F)C(=O)N1CCC[C@H](COCC(=O)N2CCN(c3nc(-c4cnc(N)nc4C(F)F)nc(N4CCOCC4)n3)CC2)C1` [Compound 12, (S)-1-(3-((2-(4-(4-(2-amino-4-(difluoromethyl)pyrimidin-5-yl)-6-morpholino-1,3,5-triazin-2-yl)piperazin-1-yl)-2-oxoethoxy)methyl)piperidin-1-yl)-2-fluoroprop-2-en-1-one], in assay [1] (setting [3]), the IC50 came to 15.4 nM.
For `Nc1ncc(-c2nc(N3CCOCC3)nc(N3CCN(C(=O)COC[C@@H]4CCCN(C(=O)/C=C/CF)C4)CC3)n2)c(C(F)F)n1` [Compound 13, (R,E)-1-(3-((2-(4-(4-(2-amino-4-(difluoromethyl)pyrimidin-5-yl)-6-morpholino-1,3,5-triazin-2-yl)piperazin-1-yl)-2-oxoethoxy)methyl)piperidin-1-yl)-4-fluorobut-2-en-1-one], in assay [1] (setting [3]), the IC50 worked out at 18 nM.
In the case of `Nc1ncc(-c2nc(N3CCOCC3)nc(N3CCN(C(=O)COC[C@H]4CCCN(C(=O)/C=C/CF)C4)CC3)n2)c(C(F)F)n1` [Compound 14, (S,E)-1-(3-((2-(4-(4-(2-amino-4-(difluoromethyl)pyrimidin-5-yl)-6-morpholino-1,3,5-triazin-2-yl)piperazin-1-yl)-2-oxoethoxy)methyl)piperidin-1-yl)-4-fluorobut-2-en-1-one], the IC50 in assay [1] (setting [3]) was 22.2 nM. On p110α (PI3Kα), this molecule returned a Ki of 1.91 nM.
Turning to `C/C=C/C(=O)N1CC(C(=O)N(C)CC(=O)N2CCN(c3nc(-c4cnc(N)nc4C(F)F)nc(N4CCOCC4)n3)CC2)C1` [Compound 34, (E)-N-(2-(4-(4-(2-amino-4-(difluoromethyl)pyrimidin-5-yl)-6-morpholino-1,3,5-triazin-2-yl)piperazin-1-yl)-2-oxoethyl)-1-(but-2-enoyl)-N-methylazetidine-3-carboxamide], the IC50 in assay [1] (setting [3]) stood at 236 nM.
With `C=CC(=O)N1CC(C(=O)NCCN2CCN(c3nc(-c4cnc(N)nc4C(F)F)nc(N4CCOCC4)n3)CC2)C1` [Compound 36, 1-acryloyl-N-(2-(4-(4-(2-amino-4-(difluoromethyl)pyrimidin-5-yl)-6-morpholino-1,3,5-triazin-2-yl)piperazin-1-yl)ethyl)azetidine-3-carboxamide], the IC50 in assay [1] (setting [3]) is 48.2 nM.
Turning to `C=CC(=O)N1CCO[C@@H](COCC(=O)N2CCN(c3nc(-c4cnc(N)nc4C(F)F)nc(N4CCOC[C@@H]4C)n3)CC2)C1` [Compound 40, 1-((R)-2-((2-(4-(4-(2-amino-4-(difluoromethyl)pyrimidin-5-yl)-6-((S)-3-methylmorpholino)-1,3,5-triazin-2-yl)piperazin-1-yl)-2-oxoethoxy)methyl)morpholino)prop-2-en-1-one], the kinact/KI at p110α (PI3Kα) (PI3Kα, read-out: kinact/Ki) amounted to 224000 M⁻¹ s⁻¹. For the same molecule, the Ki at p110α (PI3Kα) was 7.27 nM. For the same molecule, the kinact on p110α (PI3Kα) (setting [4]) was found to be 0.00163 s⁻¹.
For `C[C@H]1COCCN1c1nc(-c2cnc(N)nc2C(F)F)nc(N2CCN(C(=O)COC[C@H]3CN(C(=O)/C(C#N)=C\C4CC4)CCO3)CC2)n1` [Compound 41, (Z)-2-((R)-2-((2-(4-(4-(2-amino-4-(difluoromethyl)pyrimidin-5-yl)-6-((S)-3-methylmorpholino)-1,3,5-triazin-2-yl)piperazin-1-yl)-2-oxoethoxy)methyl)morpholine-4-carbonyl)-3-cyclopropylacrylonitrile], the kinact/KI at p110α (PI3Kα) (PI3Kα, read-out: kinact/Ki) amounted to 1.05e+06 M⁻¹ s⁻¹. In addition, the affinity at p110α (PI3Kα) corresponds to a Ki of 11.6 nM. Further, on p110α (PI3Kα) (setting [4]), the kinact amounted to 0.0121 s⁻¹.
The matching figures for `C=CC(=O)N1CCO[C@H](COCC(=O)N2CCN(c3nc(-c4cnc(N)nc4C(F)F)nc(N4CCOC[C@@H]4C)n3)CC2)C1` [Compound 42, 1-((S)-2-((2-(4-(4-(2-amino-4-(difluoromethyl)pyrimidin-5-yl)-6-((S)-3-methylmorpholino)-1,3,5-triazin-2-yl)piperazin-1-yl)-2-oxoethoxy)methyl)morpholino)prop-2-en-1-one]: 75400 M⁻¹ s⁻¹, 7.1 nM and 0.000537 s⁻¹.
For the molecule `C[C@H]1COCCN1c1nc(-c2cnc(N)nc2C(F)F)nc(N2CCN(C(=O)COC[C@@H]3CN(C(=O)/C(C#N)=C\C4CC4)CCO3)CC2)n1` [Compound 43, (Z)-2-((S)-2-((2-(4-(4-(2-amino-4-(difluoromethyl)pyrimidin-5-yl)-6-((S)-3-methylmorpholino)-1,3,5-triazin-2-yl)piperazin-1-yl)-2-oxoethoxy)methyl)morpholine-4-carbonyl)-3-cyclopropylacrylonitrile], at p110α (PI3Kα) (PI3Kα, read-out: kinact/Ki), the kinact/KI was found to be 1.04e+06 M⁻¹ s⁻¹. The molecule also gave a Ki at p110α (PI3Kα) of 13.8 nM. In addition, the kinact on p110α (PI3Kα) (setting [4]) was found to be 0.0143 s⁻¹.
